Results taken from the supplement of paper PMC11061612.

Tests used:
Experiment in all cases: Bliss excess, mean over the matrix (fraction); higher = more synergy
EW-13 (Ewing's Sarcoma) = tested on: EW-13 (Ewing's Sarcoma)
Procedure, shortened: (§1)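 After 24 hours at 37°C and 5% CO2 in 1536-well plates, cells in DMEM/F12 or RPMI plus 10% FBS received two-drug dose matrices for 72 hours. Viability came from CellTiter-Glo 2.0 luminescence and was scaled as inhibition, anchored at 0 by vehicle wells and at 1 by blank wells. Combination Emax is taken as the second-highest inhibition in the matrix, and Bliss excess as the observed combination effect less EA + EB − EA·EB, with EA and EB the single-agent effects.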

EW-3 (Ewing's Sarcoma) = tested on: EW-3 (Ewing's Sarcoma)
Procedure, shortened: as §1

[1] = tested on: LC4-1 (B-Lymphoblastic Leukemia)
Procedure, shortened: as §1

NB7 (Neuroblastoma) = tested on: NB7 (Neuroblastoma)
Procedure, shortened: as §1

[2] = tested on: NCI-H513 (Other Solid Carcinomas)
Procedure, shortened: as §1

[3] = tested on: OCUM-1 (Gastric Carcinoma)
Procedure, shortened: as §1

[4] = tested on: PF-382 (T-Lymphoblastic Leukemia)
Procedure, shortened: as §1

[5] = tested on: DG-75 (Burkitt's Lymphoma)
Procedure, shortened: as §1

[6] = tested on: OVISE (Ovarian Carcinoma)
Procedure, shortened: as §1

[7] = tested on: EMC-BAC-2 (Non-Small Cell Lung Carcinoma)
Procedure, shortened: as §1

[8] = tested on: H-EMC-SS (Chondrosarcoma)
Procedure, shortened: as §1

GOTO (Neuroblastoma) = tested on: GOTO (Neuroblastoma)
Procedure, shortened: as §1

[9] = tested on: KYSE-50 (Esophageal Squamous Cell Carcinoma)
Procedure, shortened: as §1

BT-20 (Breast Carcinoma) = tested on: BT-20 (Breast Carcinoma)
Procedure, shortened: as §1

EW-18 (Ewing's Sarcoma) = tested on: EW-18 (Ewing's Sarcoma)
Procedure, shortened: as §1

[10] = tested on: EBC-1 (Squamous Cell Lung Carcinoma)
Procedure, shortened: as §1

[11] = tested on: HuP-T3 (Pancreatic Carcinoma)
Procedure, shortened: as §1

[12] = tested on: OCUB-M (Breast Carcinoma)
Procedure, shortened: as §1

[13] = tested on: LOU-NH91 (Squamous Cell Lung Carcinoma)
Procedure, shortened: as §1

Structure (SMILES) | Bliss excess (EW-13 (Ewing's Sarcoma)) | Bliss excess (EW-3 (Ewing's Sarcoma)) | Bliss excess [1] | Bliss excess (NB7 (Neuroblastoma)) | Bliss excess [2] | Bliss excess [3] | Bliss excess [4] | Bliss excess [5] | Bliss excess [6] | Bliss excess [7] | Bliss excess [8] | Bliss excess (GOTO (Neuroblastoma)) | Bliss excess [9] | Bliss excess (BT-20 (Breast Carcinoma)) | Bliss excess (EW-18 (Ewing's Sarcoma)) | Bliss excess [10] | Bliss excess [11] | Bliss excess [12] | Bliss excess [13]
COc1cccc(OCCCN)c1-c1cc(Nc2cnc(C#N)cn2)n[nH]1 [Prexasertib] + O=C(c1cc(Cc2n[nH]c(=O)c3ccccc23)ccc1F)N1CCN(C(=O)C2CC2)CC1 [Olaparib] (first compound max 1 µM, 7x7, partner max 10 µM) | -0.0562 | -0.0378 | -0.0432 | -0.113 | -0.0162 | -0.0645 | -0.017 | -0.0819 | -0.0578 | -0.0494 | -0.0445 | -0.101 | -0.117 | 0.0405 | -0.0677 | -0.0052 | -0.0595 | 0.0018 | 0.0427
CCN(CCO)CCCOc1ccc2c(Nc3cc(CC(=O)Nc4cccc(F)c4)[nH]n3)ncnc2c1 [AZD2811] + C=CCn1c(=O)c2cnc(Nc3ccc(N4CCN(C)CC4)cc3)nc2n1-c1cccc(C(C)(C)O)n1 [AZD1775] (first compound max 1 µM, partner max 1 µM) | 0.0393 | 0.0844 | -0.109 | 0.0497 | -0.0195 | -0.0127 | -0.0432 | 0.086 | -0.0332 | -0.0112 | -0.0261 | -0.0162 | 0.0006 | -0.0073 | -0.134 | 0.0075 | -0.0366 | 0.0312 | -0.0257
C=CCn1c(=O)c2cnc(Nc3ccc(N4CCN(C)CC4)cc3)nc2n1-c1cccc(C(C)(C)O)n1 [AZD1775] + O=C(c1cc(Cc2n[nH]c(=O)c3ccccc23)ccc1F)N1CCN(C(=O)C2CC2)CC1 [Olaparib] (first compound max 1 µM, partner max 10 µM) | -0.0801 | -0.0619 | 0.0226 | -0.0171 | -0.0399 | -0.0214 | -0.0265 | -0.0491 | -0.0084 | -0.0526 | -0.0807 | -0.0271 | -0.0206 | -0.0681 | -0.0742 | -0.0549 | -0.0047 | -0.0211 | -0.0271
Cc1cc2ncnn2cc1Nc1ncc2c(n1)n(C1CCOCC1)c(=O)n2C [AZD7648] + O=C(c1cc(Cc2n[nH]c(=O)c3ccccc23)ccc1F)N1CCN(C(=O)C2CC2)CC1 [Olaparib] (first compound max 10 µM, 7x7, partner max 10 µM) | -0.0427 | -0.0743 | -0.0517 | -0.0291 | -0.0002 | -0.0571 | 0.0443 | 0.0465 | -0.0526 | -0.0399 | -0.0759 | 0.0388 | -0.0246 | -0.0492 | -0.0427 | -0.0167 | -0.0254 | -0.0467 | -0.0301
COc1cccc(OCCCN)c1-c1cc(Nc2cnc(C#N)cn2)n[nH]1 [Prexasertib] + CN(C)CCCOc1ccc(-c2ccc3ncc4c(c3c2)n(C2CCOCC2)c(=O)n4C)cn1 [AZD0156] (first compound max 1 µM, 7x7, partner max 1 µM) | 0.0557 | -0.0437 | -0.0113 | -0.0194 | -0.0071 | 0.0558 | -0.0448 | -0.0093 | 0.0209 | 0.0756 | -0.0264 | -0.0098 | 0.0138 | -0.026 | 0.021 | -0.0297 | 0.0713 | -0.022 | -0.0374
C[C@@H]1COCCN1c1cc(C2([S@](C)(=N)=O)CC2)nc(-c2ccnc3[nH]ccc23)n1 [AZD6738] + O=C(c1cc(Cc2n[nH]c(=O)c3ccccc23)ccc1F)N1CCN(C(=O)C2CC2)CC1 [Olaparib] (first compound max 10 µM, 7x7, partner max 10 µM) | -0.0574 | -0.0558 | -0.009 | 0.0202 | 0.0157 | -0.0399 | -0.0167 | -0.0619 | 0.0393 | -0.007 | -0.0558 | -0.0645 | -0.0202 | 0.0472 | 0.0292 | -0.0153 | 0.0066 | 0.0347 | 0.0035
CN(C)CCCOc1ccc(-c2ccc3ncc4c(c3c2)n(C2CCOCC2)c(=O)n4C)cn1 [AZD0156] + CCN(CCO)CCCOc1ccc2c(Nc3cc(CC(=O)Nc4cccc(F)c4)[nH]n3)ncnc2c1 [AZD2811] (first compound max 1 µM, 7x7, partner max 1 µM) | 0.009 | -0.0458 | -0.108 | -0.0082 | -0.0019 | 0.032 | -0.0115 | 0.057 | -0.0314 | -0.0005 | -0.0504 | 0.129 | -0.0128 | -0.0276 | -0.0219 | -0.0117 | -0.0379 | -0.0736 | -0.024
